How the values were obtained:
[1] = system: normal human cholangiocytes; assay: Metalloproteolytic activity of culture supernatants, ES001 fluorogenic peptide cleavage; format: cell-based; settings: normal cholangiocytes; 13-cis-retinoic acid 10 μM/ml or Marimastat 200 μM/ml; p<0.01; FIG. 21
Description: (§1) Metalloproteolytic or metalloprotease activity was measured in supernatants of cultures of normal human cholangiocytes and polycystic human cholangiocytes by an assay based on the cleavage of the ES001 fluorogenic synthetic peptide (R&D Systems Minneapolis, Minn., USA) that emits fluorescence proportional to metalloproteolytic activity. The substrate Mca-Pro-Leu-Gly-Leu-Dpa-Ala-Arg-NH2 [Mca: (7-Methoxycoumarin-4-yl)acetyl, Dpa: N-3-(2,4-Dinitrophenyl)-L-2,3-diaminopropionyl] (Knight C G, et al. FEBS Letters 1992; 296:263) is lysed between glycine and leucine by the action of the MMPs, especially MMP-1 (collagenase 1), MMP-2 (gelatinase A), MMP-7 (matrilysin), MMP-8 (collagenase 2), MMP-9 (gelatinase B), MMP-12 (macrophage elastase), MMP-13 (collagenase 3), MMP-14 (MT1-MMP), MMP-15 (MT2-MMP) and MMP-16 (MT3-MMP).
(§2) The basal metalloproteolytic activity of normal human cholangiocyte and polycystic human cholangiocytes cultures was determined by trypsinising the contents of 250 ml flasks and counting the number of cells in an inverted optical microscope using a Neubauer camera and a ½ dilution of the cell solution with trypan blue (Sigma). Next, 300,000 cells were seeded in each well of a 6-well plate and incubated with enriched DMEM/F-12 medium for 24 hours. After this time, the cells were washed with PBS and the culture medium changed for 2 ml of quiescent medium (DMEM/F-12, 1% FBS and 1% P/S) and incubated for 6 hours at 37° C./5% CO2. The supernatant was collected from each well and centrifuged at 4° C. for 10 minutes at 1,500 rpm to remove the dead cells present in the supernatant. The supernatant was concentrated 50 times using a 15 kDa (Millipore) Amicon Ultra concentrator. Next the concentrated supernatant was incubated for 2 hours at 37° C. with the ES001 fluorogenic peptide at a final concentration of 10 μM. Also, GM6001 (a global MMP inhibitor) and aprotinin (a global inhibitor of serine proteases) (both from Sigma-Aldrich) were used as controls of the specificity of the analysis of MMP activity in the assay. Recombinant MMP-10 (kindly provided by Dr. José Antonio Rodriguez Garcia, Laboratorio de Ateroesclerosis e Inflamación del CIMA, Universidad de Navarra) was used as a positive control and DMEM/F-12 medium without serum was used as the negative control. The fluorescence determination was kinetically measured in a Spectra MAX GeminiXS (Molecular Devices Sunnyvale, Calif., USA) spectrophotometer at excitation-emission wavelengths of 320-405 nm. The fluorescence intensity emitted by the culture medium was extracted from the metalloproteolytic activity values. The metalloproteolytic activity was calculated from the tangent to the curve of the fluorescence values using at least six different points over time for each type of cell and condition.
(§3) To analyse the effect of various stimuli on the metalloproteolytic activity of normal and polycystic human cholangiocytes cultures, a protocol similar to that described before in Example 2 was followed, but in this case the incubation of the cells was with quiescent medium (i.e. DMEM/F12, […]) in the presence of the corresponding stimulus (Table 3). Next, the same procedure as described for the analysis of basal metalloproteolytic activity was followed as described in Example 2.
(§4) Taking into account that: i) basal activity of polycystic human cholangiocytes in culture is greater than that of normal human cholangiocytes and ii) that IL-6 and IL-8 increased the metalloproteolytic activity of normal and polycystic human cholangiocytes, the role of these two cytokines on metalloproteolytic hyperactivity of polycystic human cholangiocytes using antibodies against the receptors of IL-6 (IL6R) and/or IL-8 (CXCR1) was investigated. […]

[2] = system: polycystic human cholangiocytes; assay: as above; format: cell-based; settings: polycystic cholangiocytes; 13-cis-retinoic acid 10 μM/ml or Marimastat 200 μM/ml; p<0.01; FIG. 21
Description: as §1, §2, §3, §4

CNC(=O)[C@@H](NC(=O)[C@H](CC(C)C)[C@H](O)C(=O)NO)C(C)(C)C [Marimastat, N-[2,2-dimethyl-1-(methylcarbamoyl)propyl]-2-[hydroxy-(hydroxycarbamoyl)methyl]-4-methyl-pentanamide]
basal metalloproteolytic activity in presence of inhibitor [1]: inhibited | basal metalloproteolytic activity in presence of inhibitor [2]: inhibited
